Legend:
[1] = target: T1, purified HLA DRB1*0101 (Homo sapiens, UniProt P01903+P01911, A100R/D57E/F55L/F60I/F76Y/I96L/L162R/M171V/P40L/Q125E/R42F/V115G/Y59C); assay: HLA-DR radioligand binding inhibition assay, DRB1*0101; conditions: IC50 nM purified HLA DRB1 *0101, purified HLA DRB1*0101
T1 construct: purified from EBV transformed homozygous cell lines or single MHC allele transfected 721.221, C1R, or fibroblast lines; made in house
Summary of the method: (§1)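 The probe, 1-10 nM radiolabeled peptide, was incubated with 1 μM to 1 nM HLA-DR for 2 days in the presence of protease inhibitors.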

[2] = target: T2, purified HLA DRB1*0301 (Homo sapiens, UniProt P01903+P01911, A100K/A102G/A103R/A169T/F55Y/I96L/K41T/L162R/M171V/P40S/Q125H/Q178H/Q39Y/R42S/S66N/T106N/T262R/W38E/Y61H); assay: HLA-DR radioligand binding inhibition assay, DRB1*0301; conditions: IC50 nM purified HLA DRB1 *0301, purified HLA DRB1*0301
T2 construct: purified from EBV transformed homozygous cell lines or single MHC allele transfected 721.221, C1R, or fibroblast lines; made in house
Experimental: (§2) Instead, wells of an opaque white 96-well Optiplate (Packard) are coated with 3 μg (100 μl@ 30 μg/ml) of HLA-specific antibody (Ab) that “capture” complexes of radiolabeled MHC and unlabeled peptide transferred from the molecular binding assay plate in 100 μl of 0.05% NP40/PBS. After a 3-hour incubation period, the supernatant is decanted and scintillation fluid (Microscint 20) added. Captured complexes are then measured on a microplate scintillation and luminescence counter (TopCount NXTTM; Packard).
(§3) HLA-DR purification. Fifteen distinct HLA-DR molecules were used in quantitative assays to measure the binding of peptides to solubilized HLA-DR molecules. […] Briefly, columns of inactivated Sepharose CL4B and Protein A Sepharose were used as pre-columns. HLA-DR molecules were captured by passage of lysates over LB3.1 monoclonal antibody (anti-HLA-DRA) columns. Antibody columns were washed with 10 mM Tris-HCL, pH8.0 with 1% (v/v) NP-40, followed by PBS containing 0.4% (w/v) n-octylglucoside.
(§4) Briefly, 1-10 nM of radiolabeled peptide was co-incubated for 2 days at either room temperature or 37° C. with 1 μM to 1 nM purified HLA-DR molecules in the presence of a cocktail of protease inhibitors. Assays were performed at various pH conditions, ranging from pH 4 to pH 7. […] After incubation, the percentage of HLA-DR-bound radioactivity is determined by capturing HLA-DR/peptide complexes on Optiplates (Packard Instruments, Meriden, Conn.) coated with the LB3.1 antibody and determining bound counts per minute using the TopCount microscintillation counter (Packard Instruments).

[3] = target: T3, purified HLA DRB1*0401 (Homo sapiens, UniProt P01903+P01911, A100K/A169T/F76Y/I96L/K127E/L162R/M171V/N62H/P40V/Q125Y/R42H/S133A/S149N/S66Y/V115G/V209L/W38E); assay: HLA-DR radioligand binding inhibition assay, DRB1*0401; conditions: IC50 nM purified HLA DRB1 *0401, purified HLA DRB1*0401
T3 construct: purified from EBV transformed homozygous cell lines or single MHC allele transfected 721.221, C1R, or fibroblast lines; made in house
Summary of the method: as §1

[4] = target: T4, purified HLA DRB1*0404 (Homo sapiens, UniProt P01903+P01911, A100R/A169T/F76Y/I96L/K127E/L162R/M171V/N62H/P40V/Q125Y/R42H/S133A/S149N/S66Y/V209L/W38E); assay: HLA-DR radioligand binding inhibition assay, DRB1*0404; conditions: IC50 nM purified HLA DRB1 *0404, purified HLA DRB1*0404
T4 construct: purified from EBV transformed homozygous cell lines or single MHC allele transfected 721.221, C1R, or fibroblast lines; made in house
Summary of the method: as §1

[5] = target: T5, purified HLA DRB1*0405 (Homo sapiens, UniProt P01903+P01911, A100R/A169T/D86S/F76Y/I96L/K127E/L162R/M171V/N62H/P40V/Q125Y/R42H/S133A/S149N/S66Y/V115G/V209L/W38E); assay: HLA-DR radioligand binding inhibition assay, DRB1*0405; conditions: IC50 nM purified HLA DRB1 *0405, purified HLA DRB1*0405
T5 construct: purified from EBV transformed homozygous cell lines or single MHC allele transfected 721.221, C1R, or fibroblast lines; made in house
Summary of the method: as §1

[6] = target: T6, purified HLA DRB1*0701 (Homo sapiens, UniProt P01903+P01911, A100R/A102G/A103Q/D57E/D86V/E43K/F76Y/K127E/L162R/M171V/P40G/Q125H/Q99D/R33Q/R42Y/R54Q/S133A/S66F/T210M/V115G/Y107V/Y59L/Y89S); assay: HLA-DR radioligand binding inhibition assay, DRB1*0701; conditions: IC50 nM purified HLA DRB1 *0701, purified HLA DRB1*0701
T6 construct: purified from EBV transformed homozygous cell lines or single MHC allele transfected 721.221, C1R, or fibroblast lines; made in house
Summary of the method: as §1

[7] = target: T7, purified HLA DRB1*0802 (Homo sapiens, UniProt P01903+P01911, A100R/A103L/A169T/F76Y/H45Y/I96F/K41T/L162R/M171V/P40S/Q125H/Q178H/Q39Y/Q99D/R218S/R42G/S66Y/V115G/W38E); assay: HLA-DR radioligand binding inhibition assay, DRB1*0802; conditions: IC50 nM purified HLA DRB1 *0802, purified HLA DRB1*0802
T7 construct: purified from EBV transformed homozygous cell lines or single MHC allele transfected 721.221, C1R, or fibroblast lines; made in house
Experimental: as §2
as §3, with “n-octylglucoside. […] The pH was reduced to 8.0 and the eluates were concentrated by centrifugation in Centriprep 30 concentrators at 2000 rpm (Amicon, Beverly, Mass.).” for “n-octylglucoside.”
as §4, with “Instruments). […] Competitor peptides are tested in 2-4 complete, independent experiments, at concentrations ranging from […].” for “Instruments).”

[8] = target: T8, purified HLA DRB1*0901 (Homo sapiens, UniProt P01903+P01911, A100R/A103E/D57H/D86V/F55Y/F60I/F76Y/I96F/K127E/L162R/M171V/P40D/Q125H/Q99R/R33Q/R42F/S133A/S66N/T210M/V115G/W38K/Y107V/Y59G/Y89S); assay: HLA-DR radioligand binding inhibition assay, DRB1*0901; conditions: IC50 nM purified HLA DRB1 *0901, purified HLA DRB1*0901
T8 construct: purified from EBV transformed homozygous cell lines or single MHC allele transfected 721.221, C1R, or fibroblast lines; made in house
Experimental: as §2, §3, §4

[9] = target: T9, purified HLA DRB1*1101 (Homo sapiens, UniProt P01903+P01911, A100R/A169T/A87E/I96F/K41T/L162R/M171V/P40S/Q125H/Q178H/Q39Y/Q99D/R42S/S66Y/T262R/V115G/W38E); assay: HLA-DR radioligand binding inhibition assay, DRB1*1101; conditions: IC50 nM purified HLA DRB1 *1101, purified HLA DRB1*1101
T9 construct: purified from EBV transformed homozygous cell lines or single MHC allele transfected 721.221, C1R, or fibroblast lines; made in house
Summary of the method: as §1

[10] = target: T10, purified HLA DRB1*1201 (Homo sapiens, UniProt P01903+P01911, A100R/A169T/D57E/D86V/F55L/H45Y/K41T/L162R/M171V/P40S/Q125H/Q178H/Q39Y/Q99D/R42G/S66L/T262R/V114A/V67L/W38E/Y59H/Y61H/Y89S); assay: HLA-DR radioligand binding inhibition assay, DRB1*1201
T10 construct: purified from EBV transformed homozygous cell lines or single MHC allele transfected 721.221, C1R, or fibroblast lines; made in house
Experimental: as §2
as §3, with “n-octylglucoside. […] The pH was reduced to 8.0 and the eluates were concentrated by centrifugation in Centriprep 30 concentrators at 2000 rpm (Amicon, Beverly, Mass.).” for “n-octylglucoside.”
as §4, with “Instruments). […] Competitor peptides are tested in 2-4 complete, independent experiments, at concentrations ranging from […].” for “Instruments).”

[11] = target: T11, purified HLA DRB5*0101 (Homo sapiens, UniProt P01903+Q30154); assay: HLA-DR radioligand binding inhibition assay, DRB5*0101; conditions: IC50 nM purified HLA DRB5 *0101, purified HLA DRB5*0101
T11 construct: purified from EBV transformed homozygous cell lines or single MHC allele transfected 721.221, C1R, or fibroblast lines; made in house
Summary of the method: as §1

[12] = target: T12, purified HLA DRB1*1501 (Homo sapiens, UniProt P01903+P01911); assay: HLA-DR radioligand binding inhibition assay, DRB1*1501
T12 construct: purified from EBV transformed homozygous cell lines or single MHC allele transfected 721.221, C1R, or fibroblast lines; made in house
Summary of the method: as §1

[13] = target: T13, purified HLA DRB4*0101 (Homo sapiens, UniProt P01903+P13762, G164S); assay: HLA-DR radioligand binding inhibition assay, DRB4*0101; conditions: IC50 nM purified HLA DRB4 *0101, purified HLA DRB4*0101
T13 construct: purified from EBV transformed homozygous cell lines or single MHC allele transfected 721.221, C1R, or fibroblast lines; made in house
Summary of the method: as §1

[14] = target: T14, purified HLA DRB1*1302 (Homo sapiens, UniProt P01903+P01911, A100E/A169T/K41T/L162R/M171V/P40S/Q125H/Q178H/Q39Y/Q99D/R42S/S66N/T262R/V115G/W38E/Y61H); assay: HLA-DR radioligand binding inhibition assay, DRB1*1302
T14 construct: purified from EBV transformed homozygous cell lines or single MHC allele transfected 721.221, C1R, or fibroblast lines; made in house
Summary of the method: as §1

[15] = target: T15, purified HLA DRB3*0101 (Homo sapiens, UniProt P01903+P79483); assay: HLA-DR radioligand binding inhibition assay, DRB3*0101; conditions: IC50 nM purified HLA DRB3 *0101, purified HLA DRB3*0101
T15 construct: purified from EBV transformed homozygous cell lines or single MHC allele transfected 721.221, C1R, or fibroblast lines; made in house
Experimental: as §2
as §3, with “n-octylglucoside. […] The pH was reduced to 8.0 and the eluates were concentrated by centrifugation in Centriprep 30 concentrators at 2000 rpm (Amicon, Beverly, Mass.).” for “n-octylglucoside.”
as §4, with “Instruments). […] Competitor peptides are tested in 2-4 complete, independent experiments, at concentrations ranging from […].” for “Instruments).”

T9 sequence (P01903 26-254, other chains not shown): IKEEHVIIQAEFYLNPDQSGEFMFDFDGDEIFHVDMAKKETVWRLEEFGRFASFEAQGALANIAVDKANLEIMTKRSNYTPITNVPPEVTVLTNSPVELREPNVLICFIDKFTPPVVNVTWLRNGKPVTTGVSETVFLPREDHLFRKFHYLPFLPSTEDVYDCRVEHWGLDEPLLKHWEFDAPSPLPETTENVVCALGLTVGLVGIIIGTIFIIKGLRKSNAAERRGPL

IC50 [1] [nM]	IC50 [2] [nM]	IC50 [3] [nM]	IC50 [4] [nM]	IC50 [5] [nM]	IC50 [6] [nM]	IC50 [7] [nM]	IC50 [8] [nM]	IC50 [9] [nM]	IC50 [10] [nM]	IC50 [11] [nM]	IC50 [12] [nM]	IC50 [13] [nM]	IC50 [14] [nM]	IC50 [15] [nM]	Compound
4030	31	1640	2910	> 20000	16800	> 20000	> 20000	> 20000	16900	> 20000	–	–	–	–	CC[C@H](C)[C@H](NC(=O)[C@@H](NC(=O)[C@@H]1CCCN1C(=O)[C@H](C)N)[C@@H](C)O)C(=O)N[C@@H](CCCNC(=N)N)C(=O)NCC(=O)N[C@@H](CC(=O)O)C(=O)N1CCC[C@H]1C(=O)N[C@@H](CCC(=O)O)C(=O)N[C@@H](CS)C(=O)N[C@@H](Cc1c[nH]cn1)C(=O)N[C@@H](CC(C)C)C(=O)N[C@@H](Cc1ccccc1)C(=O)N[C@@H](Cc1ccc(O)cc1)C(=O)N[C@@H](CC(N)=O)C(=O)O [Peptide 9019.0022]
–	–	–	–	> 20000	> 20000	> 20000	> 20000	> 20000	–	> 20000	> 20000	5310	–	–	CC(C)C[C@H](NC(=O)[C@H](Cc1c[nH]cn1)NC(=O)[C@@H](N)CS)C(=O)N[C@@H](Cc1ccccc1)C(=O)N[C@@H](Cc1ccc(O)cc1)C(=O)N[C@@H](CC(N)=O)C(=O)N[C@@H](CCC(=O)O)C(=O)N[C@@H](CCC(N)=O)C(=O)N[C@@H](CCC(N)=O)C(=O)N[C@@H](CCC(=O)O)C(=O)N[C@@H](C)C(=O)N[C@@H](CCCNC(=N)N)C(=O)NCC(=O)N[C@H](C(=O)N[C@@H](Cc1c[nH]cn1)C(=O)O)C(C)C [Peptide 9019.0023]
–	64	95	–	3170	1100	–	15900	> 20000	> 20000	4620	25	33	879	> 20000	CC[C@H](C)[C@H](NC(=O)[C@H](CS)NC(=O)[C@H](CC(C)C)NC(=O)[C@@H](N)CCCCN)C(=O)N[C@@H](Cc1ccc(O)cc1)C(=O)N[C@H](C(=O)N[C@@H](CC(=O)O)C(=O)N[C@@H](CC(N)=O)C(=O)N[C@@H](CO)C(=O)N[C@H](C(=O)N[C@@H](CCCNC(=N)N)C(=O)N1CCC[C@H]1C(=O)N[C@@H](CCC(=O)O)C(=O)N[C@@H](CCC(=O)O)C(=O)N[C@@H](CC(C)C)C(=O)O)[C@@H](C)CC)[C@@H](C)O [Peptide 9019.0159]

From patent US20140377340A1, “HLA-DR BINDING PEPTIDES AND THEIR USES” (priority 2007, published 2014)
